Patent publication US20150329558A1, “FUSED HETEROCYCLIC COMPOUNDS AS ION CHANNEL MODULATORS” (Gilead Sciences, Inc., priority 2011, published 2015)
Values joined by “and” are separate entries in the source; they are usually repeats but may differ in a detail not shown here. Equal values may be shown once. Read-outs that look alike come from different tables or passages of the source.

Tests used:
[1] = molecular target: wild-type human cardiac sodium channel, hNav1.5 (late INa) (Homo sapiens, UniProt Q14524); test: Late INa screening assay (QPatch whole cell patch clamp); format: cell-based
Procedure, shortened: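 HEK293 cells stably expressing hNav1.5 alpha subunit without beta subunits, QPatch automated whole-cell clamp at 23-25° C, CsF-based internal solution pH 7.4. Late INa induced by 10 μM tefluthrin; 250 ms steps to −20 mV from −120 mV at 0.1 Hz, compounds at 1 μM. Percent block of mean current 225–250 ms into the step.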

hERG potassium channel = hERG potassium channel (Homo sapiens, UniProt Q12809); test: hERG screening assay (PatchXpress, CHO cells); format: cell-based; settings: for HERG*: % inhibition at 1 μM
Experimental: Compounds were also tested for their effect to block the hERG K^+ channel.
Compounds were screened to test their activity in blocking the hERG potassium channel at AVIVA Biosciences (San Deigo, Calif., USA). The hERG channel is heterologously expressed in a CHO (Chinese Hamster Ovary) cell line. Cells were maintained with standard tissue culture procedures and stable channel expression was maintained with 500 μg/mL G418 in the culture medium. Cells were harvested for testing on the PatchXpress 7000A automated patch clamp with Accumax (Innovative Cell Technologies, San Diego, Calif.) to isolate single cells.
The following solutions were used for electrophysiological recordings. The external solution contained: 2 mM CaCl2; 2 mM MgCl2; 4 mM KCl; 150 mM NaCl; 10 mM Glucose; 10 mM HEPES (pH 7.4 with 1M NaOH; osmolarity, ˜310 mOsm). The internal solution contained: 140 mM KCl, 10 mM MgCl2, 6 mM EGTA, 5 mM HEPES, 5 mM ATP (pH adjusted to 7.25 with KOH; osmolarity, ˜295 mOsm).
hERG channels were activated when the voltage was first stepped to −50 mV for 300 ms from the −80 mV holding potential and then stepped to +20 mV for 5 seconds. At +20 mV the channels open and then largely inactivate, so the currents are relatively small. Upon returning to −50 mV from +20 mV, hERG currents transiently become much larger as inactivation is rapidly removed and then the channel closes. The first step to −50 mV for 300 ms was used as a baseline for measuring the peak amplitude during the step to −50 mV after channel activation. The peak tail current at −50 mV was measured both under control conditions and after addition of compound, each cell serving as its own control.
All compounds were prepared as 10 mM DMSO stocks in glass vials. Stock solutions were mixed by vigorous vortexing and sonication for about 2 minutes at room temperature. For testing, compounds were diluted in glass vials using an intermediate dilution step in pure DMSO and then further diluted to working concentrations in external solution. Dilutions were prepared no longer than 20 minutes before use.
For the electrophysiological recordings, after achieving the whole-cell configuration, cells were monitored for 90 seconds to assess stability and washed with external solution for 66 seconds. The voltage protocol described above was then applied to the cells every 12 seconds and throughout the whole procedure. Only cells with stable recording parameters and meeting specified health criteria were allowed to enter the compound addition procedure.
External solution containing 0.1% DMSO (vehicle) was applied to the cells first to establish the control peak current amplitude. After allowing the current to stabilize for 3 to 5 minutes, 1 μM and then 10 μM test compounds were applied. Each compound concentration was added 4 times and cells were kept in test solution until the effect of the compound reached steady state or for a maximum of 12 minutes. After addition of test compound, a positive control (1 μM Cisapride) was added and must block >95% of the current for the experiment to be considered valid. Washout in the external solution compartment was performed until the recovery of the current reached steady state.

[2] = Microsomal stability assay, human; format: in vitro ADME; settings: metabolic stability, human liver microsomes 0.5 mg/mL, substrate 3 uM
Procedure, shortened: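 Liver microsomes at 0.5 mg/mL protein in 100 mM KPO4 buffer, incubated with 3 uM compound and NADPH-regenerating system, run in duplicate. Samples taken at 2, 12, 25, 45 and 65 min and quenched in MeOH/ACN/water before analysis.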

[3] = % inhibition at 1 μM, read-out: NAv1.5*-LATE-
[4] = percent block of late INa, compound at 1 μM, 10 μM Tefluthrin, HEK293 hNav1.5, read-out: Late INa 1 μM

Sequence of hERG potassium channel (Q12809 whole entry): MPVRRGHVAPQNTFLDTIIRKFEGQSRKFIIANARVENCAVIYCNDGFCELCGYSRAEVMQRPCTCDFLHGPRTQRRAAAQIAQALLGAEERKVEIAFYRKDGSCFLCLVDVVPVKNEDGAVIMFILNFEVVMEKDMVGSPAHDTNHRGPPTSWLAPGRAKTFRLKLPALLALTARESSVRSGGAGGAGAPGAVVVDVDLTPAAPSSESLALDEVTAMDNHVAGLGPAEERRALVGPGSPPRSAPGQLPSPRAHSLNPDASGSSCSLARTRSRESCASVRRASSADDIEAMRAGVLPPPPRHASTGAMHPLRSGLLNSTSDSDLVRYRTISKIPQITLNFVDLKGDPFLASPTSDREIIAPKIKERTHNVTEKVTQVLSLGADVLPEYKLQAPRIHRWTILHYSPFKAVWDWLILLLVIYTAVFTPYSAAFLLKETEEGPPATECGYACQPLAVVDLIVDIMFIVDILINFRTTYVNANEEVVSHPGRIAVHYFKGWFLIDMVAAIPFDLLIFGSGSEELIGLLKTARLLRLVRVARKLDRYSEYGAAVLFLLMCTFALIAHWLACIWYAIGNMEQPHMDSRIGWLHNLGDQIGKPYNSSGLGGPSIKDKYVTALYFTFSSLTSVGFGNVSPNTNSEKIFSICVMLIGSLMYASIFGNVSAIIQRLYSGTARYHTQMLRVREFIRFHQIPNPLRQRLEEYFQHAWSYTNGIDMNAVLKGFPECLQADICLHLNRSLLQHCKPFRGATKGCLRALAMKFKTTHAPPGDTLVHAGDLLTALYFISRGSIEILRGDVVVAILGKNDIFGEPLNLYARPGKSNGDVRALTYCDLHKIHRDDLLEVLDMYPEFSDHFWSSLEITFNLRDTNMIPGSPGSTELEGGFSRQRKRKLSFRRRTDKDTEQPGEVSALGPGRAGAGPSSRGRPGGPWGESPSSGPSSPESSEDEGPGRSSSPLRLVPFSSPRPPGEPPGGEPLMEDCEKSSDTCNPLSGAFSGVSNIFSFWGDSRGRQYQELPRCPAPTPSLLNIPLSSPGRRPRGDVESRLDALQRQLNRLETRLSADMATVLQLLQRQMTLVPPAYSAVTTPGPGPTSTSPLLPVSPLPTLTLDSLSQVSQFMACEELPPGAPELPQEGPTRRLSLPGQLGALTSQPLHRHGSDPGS
Sequence of wild-type human cardiac sodium channel, hNav1.5 (late INa) (Q14524 whole entry): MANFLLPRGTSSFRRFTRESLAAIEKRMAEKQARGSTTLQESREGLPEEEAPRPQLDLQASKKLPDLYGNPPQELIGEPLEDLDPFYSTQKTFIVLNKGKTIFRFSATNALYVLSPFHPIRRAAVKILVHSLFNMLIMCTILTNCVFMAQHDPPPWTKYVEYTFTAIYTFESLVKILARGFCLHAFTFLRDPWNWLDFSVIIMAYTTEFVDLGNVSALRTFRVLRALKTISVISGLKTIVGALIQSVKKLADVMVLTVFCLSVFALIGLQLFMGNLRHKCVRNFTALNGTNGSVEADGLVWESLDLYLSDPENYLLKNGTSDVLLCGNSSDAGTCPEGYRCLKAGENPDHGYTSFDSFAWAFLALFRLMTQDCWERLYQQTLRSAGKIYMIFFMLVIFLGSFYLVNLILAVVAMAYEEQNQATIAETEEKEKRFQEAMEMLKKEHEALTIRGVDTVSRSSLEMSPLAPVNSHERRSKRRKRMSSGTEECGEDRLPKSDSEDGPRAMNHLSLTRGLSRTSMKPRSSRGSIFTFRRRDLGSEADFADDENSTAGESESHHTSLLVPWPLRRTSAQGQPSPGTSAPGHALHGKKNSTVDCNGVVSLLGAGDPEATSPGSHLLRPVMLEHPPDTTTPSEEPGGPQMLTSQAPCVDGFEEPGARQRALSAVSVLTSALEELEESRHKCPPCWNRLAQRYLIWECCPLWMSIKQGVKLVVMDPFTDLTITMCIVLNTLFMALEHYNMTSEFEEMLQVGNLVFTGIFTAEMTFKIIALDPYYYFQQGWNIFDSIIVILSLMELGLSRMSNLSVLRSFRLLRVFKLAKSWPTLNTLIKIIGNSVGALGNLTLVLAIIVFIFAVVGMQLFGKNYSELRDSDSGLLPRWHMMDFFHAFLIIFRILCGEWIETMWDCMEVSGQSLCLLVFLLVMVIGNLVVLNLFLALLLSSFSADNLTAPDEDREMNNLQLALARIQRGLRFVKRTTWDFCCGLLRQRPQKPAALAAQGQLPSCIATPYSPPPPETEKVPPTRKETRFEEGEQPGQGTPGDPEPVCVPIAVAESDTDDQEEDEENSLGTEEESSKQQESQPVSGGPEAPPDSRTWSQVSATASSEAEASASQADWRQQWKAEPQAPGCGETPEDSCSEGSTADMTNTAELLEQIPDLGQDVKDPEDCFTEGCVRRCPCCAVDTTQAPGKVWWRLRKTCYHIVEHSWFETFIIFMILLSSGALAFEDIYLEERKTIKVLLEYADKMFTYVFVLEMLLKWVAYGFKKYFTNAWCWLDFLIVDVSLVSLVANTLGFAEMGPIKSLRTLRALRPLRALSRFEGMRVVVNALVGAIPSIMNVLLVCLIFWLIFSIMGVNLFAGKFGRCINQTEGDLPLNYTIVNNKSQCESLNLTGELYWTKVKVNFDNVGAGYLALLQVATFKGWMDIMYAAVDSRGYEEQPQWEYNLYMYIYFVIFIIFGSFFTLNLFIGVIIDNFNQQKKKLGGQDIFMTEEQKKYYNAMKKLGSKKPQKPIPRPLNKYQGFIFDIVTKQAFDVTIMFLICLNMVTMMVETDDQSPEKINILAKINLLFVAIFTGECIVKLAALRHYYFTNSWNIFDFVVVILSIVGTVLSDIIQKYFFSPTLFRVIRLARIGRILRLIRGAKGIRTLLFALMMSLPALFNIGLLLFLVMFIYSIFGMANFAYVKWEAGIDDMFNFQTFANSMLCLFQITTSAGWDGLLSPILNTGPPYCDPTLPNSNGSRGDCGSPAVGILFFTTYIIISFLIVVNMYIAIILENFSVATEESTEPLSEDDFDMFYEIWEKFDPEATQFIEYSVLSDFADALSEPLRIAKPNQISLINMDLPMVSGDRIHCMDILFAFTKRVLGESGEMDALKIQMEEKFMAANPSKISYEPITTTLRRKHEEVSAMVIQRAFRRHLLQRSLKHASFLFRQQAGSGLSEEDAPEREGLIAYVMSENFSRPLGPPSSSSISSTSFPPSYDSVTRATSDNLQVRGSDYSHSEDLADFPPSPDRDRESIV

SMILES: O=c1c2cc(-c3ccc(OC(F)(F)F)cc3)ccc2cnn1CCOc1ncccn1 [III-28, 2-(2-(pyrimidin-2-yloxy)ethyl)-7-(4-(trifluoromethoxy)phenyl)phthalazin-1 (2H)-one]
- inhibition at 1 µM [1, 3]: 75%
- inhibition at 1 µM [1, 4]: 75%
- HERG* (hERG potassium channel): 51%
- MS Human THalf [2]: 170 min

SMILES: O=c1c2cc(-c3ccc(OC(F)(F)F)cc3)ccc2nnn1CCc1ccncn1 [II-17, 3-(2-(pyrimidin-4-yl)ethyl)-6-(4-(trifluoromethoxy)phenyl)benzo[d][1,2,3]triazin-4(3H)-one]
- inhibition at 1 µM [1, 3]: 61%
- inhibition at 1 µM [1, 4]: 61%
- HERG* (hERG potassium channel): 42%
- MS Human THalf [2]: 101 min

SMILES: O=C(c1cccnn1)N1CCc2ccc(-c3ccc(C(F)(F)F)cc3)cc2C1 [IX-17, Pyridazin-3-yl(7-(4-(trifluoromethyl)phenyl)-3,4-dihydroisoquinolin-2 (1H)-yl) methanone]
- inhibition at 1 µM [1, 3]: 39%
- inhibition at 1 µM [1, 4]: 39%
- HERG* (hERG potassium channel): 76%
- MS Human THalf [2]: 257 min

SMILES: O=c1c2cc(-c3ccc(OC(F)(F)F)cc3)ccc2nnn1CC1(CN2CCOCC2)CC1 [II-40, 3-((1-(morpholinomethyl)cyclopropyl)methyl)-6-(4-(trifluoromethoxy)phenyl)benzo[d][1,2,3]triazin-4(3H)-one]
- inhibition at 1 µM [1, 3]: 48%
- inhibition at 1 µM [1, 4]: 48%
- HERG* (hERG potassium channel): 81%
- MS Human THalf [2]: 2 min

SMILES: O=c1c2cc(-c3ccc(OC(F)(F)F)cc3)ccc2nnn1CCOc1ncccn1 [II-32, 3-(2-(pyrimidin-2-yloxy)ethyl)-6-(4-(trifluoromethoxy)phenyl)benzo[d][1,2,3]triazin-4(3H)-one]
- inhibition at 1 µM [1, 3]: 64%
- inhibition at 1 µM [1, 4]: 64%
- HERG* (hERG potassium channel): 45%
- MS Human THalf [2]: 392 min

SMILES: O=C1c2cc(-c3ccc(C(F)(F)F)cc3)ccc2OCN1Cc1ccccn1 [VIII-1, 3-(pyridin-2-ylmethyl)-6-(4-(trifluoromethyl)phenyl)-2H-benzo[e][1,3]oxazin-4(3H)-one]
- inhibition at 1 µM [1, 3]: 52%
- inhibition at 1 µM [1, 4]: 52%
- MS Human THalf [2]: 125 min

SMILES: O=c1c2cc(-c3ccc(OC(F)(F)F)cc3)ccc2nnn1C1CCNCC1 [II-38, 3-(piperidin-4-yl)-6-(4-(trifluoromethoxy)phenyl)benzo[d][1,2,3]triazin-4(3H)-one]
- inhibition at 1 µM [1, 3]: 33%
- inhibition at 1 µM [1, 4]: 33%
- HERG* (hERG potassium channel): 58%
- MS Human THalf [2]: > 395 min

SMILES: O=C(c1ncccn1)N1CCc2ccc(-c3ccc(C(F)(F)F)cc3)cc2C1 [IX-7, pyrimidin-2-yl(7-(4-(trifluoromethyl)phenyl)-3,4-dihydroisoquinolin-2(1H)-yl)methanone]
- inhibition at 1 µM [1, 3]: 46%
- inhibition at 1 µM [1, 4]: 46%
- HERG* (hERG potassium channel): <10%
- MS Human THalf [2]: > 395 min

SMILES: CC1Oc2ccc(-c3ccc(OC(F)(F)F)cc3)cc2C(=O)N1Cc1ncccn1 (centres unmarked) [VIII-7, 2-methyl-3-(pyrimidin-2-ylmethyl)-6-(4-(trifluoromethoxy)phenyl)-2H-benzo[e][1,3]oxazin-4(3H)-one]
- inhibition at 1 µM [1, 3]: 22%
- inhibition at 1 µM [1, 4]: 22%
- HERG* (hERG potassium channel): <10%
- MS Human THalf [2]: 221 min

SMILES: COc1cc(OC)nc(Cn2ncc3ccc(-c4ccc(OC(F)(F)F)cc4)cc3c2=O)n1 [III-19, 2-((4,6-dimethoxypyrimidin-2-yl)methyl)-7-(4-(trifluoromethoxy)phenyl)phthalazin-1 (2H)-one]
- inhibition at 1 µM [1, 3]: 56%
- inhibition at 1 µM [1, 4]: 56%
- HERG* (hERG potassium channel): 23%
- MS Human THalf [2]: 130 min

SMILES: Cc1noc(Cn2nnc3ccc(-c4ccc(OC(F)(F)F)cc4)cc3c2=O)n1 [II-3, 3-((3-methyl-1,2,4-oxadiazol-5-yl)methyl)-6-(4-(trifluoromethoxy)phenyl)benzo[d][1,2,3]triazin-4(3H)-one]
- inhibition at 1 µM [1, 3]: 53%
- inhibition at 1 µM [1, 4]: 53%
- HERG* (hERG potassium channel): 15.5% and 16%
- inhibition at 10 µM (hERG potassium channel; human, CHO cells that heterologously express the hERG channel, pH 7.4, at 10 μM): 24.5%
- MS Human THalf [2]: 336 min

SMILES: O=C1c2cc(-c3ccc(C(F)(F)F)cc3)ccc2CCN1Cc1ncccn1 [IX-3, 2-(pyrimidin-2-ylmethyl)-7-(4-(trifluoromethyl)phenyl)-3,4-dihydroisoquinolin-1(2H)-one]
- inhibition at 1 µM [1, 3]: 29%
- inhibition at 1 µM [1, 4]: 29%
- HERG* (hERG potassium channel): 14%
- MS Human THalf [2]: 304 min

SMILES: O=c1c2cc(-c3ccc(OC(F)(F)F)cc3)ccc2nnn1CCc1ncccn1 [II-18, 3-(2-(pyrimidin-2-yl)ethyl)-6-(4-(trifluoromethoxy)phenyl)benzo[d][1,2,3]triazin-4(3H)-one]
- inhibition at 1 µM [1, 3]: 66%
- inhibition at 1 µM [1, 4]: 66%
- HERG* (hERG potassium channel): 30%
- MS Human THalf [2]: 130 min

SMILES: Cn1cnc(C(=O)N2CCc3ccc(-c4ccc(C(F)(F)F)cc4)cc3C2)c1 [IX-39, (1-methyl-1H-imidazol-4-yl)(7-(4-(trifluoromethyl)phenyl)-3,4-dihydroisoquinolin-2(1H)-yl)methanone]
- inhibition at 1 µM [1, 3]: 30%
- inhibition at 1 µM [1, 4]: 30%
- HERG* (hERG potassium channel): 35%
- MS Human THalf [2]: > 395 min

SMILES: O=c1c2cc(-c3ccc(OC(F)(F)F)cc3)ccc2cnn1Cc1ncccn1 [III-5, 2-(pyrimidin-2-ylmethyl)-7-(4-(trifluoromethoxy)phenyl)phthalazin-1(2H)-one]
- inhibition at 1 µM [1, 3]: 44%
- inhibition at 1 µM [1, 4]: 44%
- HERG* (hERG potassium channel): 13%
- MS Human THalf [2]: 30 min

SMILES: O=c1c2cc(-c3ccc(OC(F)(F)F)cc3)ccc2nnn1Cc1noc(-c2ccccn2)n1 [II-54, 3-((5-(pyridin-2-yl)-1,2,4-oxadiazol-3-yl)methyl)-6-(4-(trifluoromethoxy)phenyl)benzo[d][1,2,3]triazin-4(3H)-one]
- inhibition at 1 µM [1, 3]: 52%
- inhibition at 1 µM [1, 4]: 52%
- HERG* (hERG potassium channel): 23%
- MS Human THalf [2]: 329 min

SMILES: Cc1nc(Cn2cnc3ccc(-c4ccc(OC(F)(F)F)cc4)cc3c2=O)no1 [IV-9, 3-((5-methyl-1,2,4-oxadiazol-3-yl)methyl)-6-(4-(trifluoromethoxy)phenyl)quinazolin-4(3H)-one]
- inhibition at 1 µM [1, 3]: 42%
- inhibition at 1 µM [1, 4]: 42%
- HERG* (hERG potassium channel): <10%
- MS Human THalf [2]: > 395 min

SMILES: O=C1c2cc(-c3ccc(OC(F)(F)F)cc3)ccc2CCN1Cc1ncccn1 [IX-1, 2-(pyrimidin-2-ylmethyl)-7-(4-(trifluoromethoxy)phenyl)-3,4-dihydroisoquinolin-1(2H)-one]
- inhibition at 1 µM [1, 3]: 32%
- inhibition at 1 µM [1, 4]: 32%
- HERG* (hERG potassium channel): 17%
- MS Human THalf [2]: > 395 min

SMILES: O=C1c2cc(-c3ccc(OC(F)(F)F)cc3)ccc2OCN1Cc1ccccn1 [VIII-3, 3-(pyridin-2-ylmethyl)-6-(4-(trifluoromethoxy)phenyl)-2H-benzo[e][1,3]oxazin-4(3H)-one]
- inhibition at 1 µM [1, 3]: 58%
- inhibition at 1 µM [1, 4]: 58%
- HERG* (hERG potassium channel): <10%
- MS Human THalf [2]: 285 min

SMILES: O=c1c2cc(-c3ccc(OC(F)(F)F)cc3)ccc2cnn1CCn1cccn1 [III-9, 2-(2-(1H-pyrazol-1-yl)ethyl)-7-(4-(trifluoromethoxy)phenyl)phthalazin-1(2H)-one]
- inhibition at 1 µM [1, 3]: 57%
- inhibition at 1 µM [1, 4]: 57%
- HERG* (hERG potassium channel): 37%
- MS Human THalf [2]: 100 min

SMILES: O=C1c2cc(-c3ccc(OC(F)(F)F)cc3)ccc2OCN1Cc1ncccn1 [VIII-20, 3-(pyrimidin-2-ylmethyl)-6-(4-(trifluoromethoxy)phenyl)-2H-benzo[e][1,3]oxazin-4(3H)-one]
- inhibition at 1 µM [1, 3]: 62%
- inhibition at 1 µM [1, 4]: 62%
- HERG* (hERG potassium channel): <10%
